Assays:
[1] = test system: clone ES5.13; experiment: Cytokine measurement in culture supernatants of clone ES5.13; assay type: cell-based, human; conditions: for interference on Pen G-induced IL2 secretion: added together with 0.25 mg/ml of Pen G; for cytokine response to the derivative alone: without Pen G
Experimental: (§1) For cytokine measurement, 10^5 T cells and 5 x 10^4 autologous, irradiated EBV-B cells were mixed in 200 µl of complete RPMI-FCS medium containing appropriate Ag concentration. After overnight incubation, supernatants were collected and tested for the concentration of IL2, IFNγ and IL4. IL2 was quantified on a IL2-dependent CTLL line. IFNγ was measured by a sandwich ELISA as described (12). IL-4 was measured using the Duo-Set ELISA kit provided by Genzyme Diagnostics, Cambridge, MA. Eventually, cells were kept in culture for another 24 h and cellular proliferation was measured by thymidine uptake as described above.
In a first set of experiments we studied the effect of the Pen V and Amp derivatives on the T cell phenotype induced by Pen G on two hapten-specific CD4^+ cell clones.

[2] = test system: tetanus toxoid-specific T cell clone 1ES4; assay type: cell-based, human
[3] = test system: clone BAM25; experiment: Cytokine measurement in culture supernatants of clone BAM25; assay type: cell-based, human; conditions: for cytokine response to the derivative alone: without Pen G
[4] = test system: mouse Th1 cells; conditions: through specific inhibition of p38 MAP kinases; cited from earlier work
[5] = test system: PBMC from donors allergic to β-lactams; experiment: Flow cytometric analysis of intracellular IFNγ and IL4 production in Pen G-stimulated PBMC cultures; assay type: cell-based, human; conditions: restimulated with PMA and ionomycin, intracellular staining
Experimental: (§2) Cells at a concentration of 3 x 10^5/w were stimulated with 3-fold dilutions of Pen G from 3 mg/ml to 0.1 µg/ml. After 5 days incubation at 37°C in 5% CO2, the proliferative response was determined, in one of the plates, as the ^3H-thymidine incorporation after 16 h incubation with […] = 37 kBq ^3H-thymidine (Dupont, Boston, MA). Cells were harvested on GF/A-filters (Dunn Labortechnik GmbH, Asbach, Germany) and the incorporation was measured in an automatic β-counter (Inotech, Asbach, Germany). The second plate was further expanded in IL2-containing medium for 4 days. Cells were then pooled for any given Pen G concentration, washed and rested in the absence of IL2. After another 4 days, cells were harvested and analysed for TCR expression by cell surface staining and IL4/IFNγ production by intracellular staining.
Intracellular staining for cytokines was performed following the protocol described by Murphy et al. (12), with few modifications. […] Samples were resuspended in PBS/BSA and analyzed on a FACScan flow cytometer (Becton Dickinson & Co.). […] Results were analyzed using Cellquest software. T cells were detected by standard surface staining using the PE-conjugated anti human TCRαβ antibody (Clone BMA03, Immunotech, Marseille, France). […]

[6] = test system: Pen G-specific T cell clones; experiment: Proliferation and IL4/IFNγ secretion of a panel of T cell clones at different Pen G doses; assay type: cell-based, human
Experimental: T cell clones were generated from Pen G specific T cell lines. Freshly isolated PBMC were stimulated with 1, 0.3, 0.1 mg/ml of Pen G at a density of 2 x 10^5 cells/well in a final volume of 200 µl of complete RPMI containing 5 % HS in 96-well flat bottom culture plates. After 5 days at 37°C and 5 % CO2, 25 U/ml of IL2 was added to the wells. After another 4 days the cultures were pooled, rested for 3 days in the absence of IL2 and subjected to a second round of restimulation using irradiated autologous PBMC as APC and the same dose of Pen G given during the first restimulation. After 3 days the different cultures were again expanded in IL2 containing medium and then cloned by limiting dilution. T cell blasts were seeded at 0.3 cells/well in Terasaki plates (Nunc, Roskilde, Denmark) in the presence of 1 µg/ml PHA and 10^4 irradiated allogeneic PBMC in complete RPMI medium containing 5 % HS and 250 U/ml IL-2. The T cell clones obtained were maintained in culture by periodic stimulation in the presence of irradiated allogeneic PBMC, PHA and IL2.
as §1
In order to evaluate the role of Pen G doses in inducing functional differentiation of established T lymphocytes, a panel of independent Pen G-specific T cell clones was prepared. PBMC from donors two were subjected to two rounds of stimulation, in vitro, with Pen G at concentrations of 1, 0.3 and 0.1 mg/ml in three independent T cell lines. After expansion in IL2-containing medium, each line was independently cloned by limiting dilution. A total of 18 Pen G-specific T cell clones were obtained from donor two and 24 from donor one. The hapten-specific T cell phenotype was induced stimulating each T cell clone with 3-fold dilution of Pen G, from 3 mg/ml to 0.03 mg/ml concentration, in the presence of irradiated autologous EBV-B cells. After 24 h incubation, supernatants were harvested and processed for cytokine measurement, while cells were kept in culture for another 24 h and T cell proliferation was measured by thymidine uptake. We then examined IL4 and IFNγ secretion induced in the presence of the highest and lowest Pen G dose able to trigger cellular proliferation, considering SI values ≥ 2.0 as positive response.

[7] = test system: PBMC from donors allergic to β-lactams; experiment: Proliferative response of primary PBMC cultures to Pen G (3H-thymidine incorporation); assay type: cell-based, human; conditions: 5 days incubation
Experimental: as §2
Patients BAM, CAS and ES participating to this study developed allergic reactions after treatment with β-lactam antibiotics and their clinical data are summarized in Table I. At the time of diagnosis they all presented different symptoms after treatment with β-lactams as well as positive LTT in vitro (Table I; ref. 2, 4 and data not shown). […] After 5 days of incubation, the proliferative response was measured in one of the cultures by thymidine incorporation. […] The intensity of the response was dose-dependent, with maximal proliferation at 0.3 mg/ml of Pen G.

[8] = high concentration, together with 0.25 mg/ml of Pen G
[9] = added together with 0.25 mg/ml of Pen G, 24 h
[10] = 0.25 mg/ml of Pen G only, 24 h incubation

## CC1(C)S[C@@H]2[C@H](NC(=O)COc3ccccc3)C(=O)N2[C@H]1C(=O)O [Pen V, Penicillin V]
[1]
  interference on Pen G-induced IL2 secretion: no interference
  cytokine response to the derivative alone: None of them responded
[1]; [8]
  effect on IL4 production: only a marginal reduction
[2]
  concentration at which IFNγ secretion is completely abrogated: ≥ 0.1 mg/mL
  effect on IL2 production: unaffected
[3]; [9]
  concentrations at which IFNγ production is completely abrogated: ≥ 0.1 mg/mL
  effect on IL4 secretion: without affecting IL4 secretion
  reduction of the amount of IL2: about 50%
[3]
  cytokine response to the derivative alone: None of them responded

## C[S+]([O-])c1ccc(-c2nc(-c3ccncc3)c(-c3ccc(F)cc3)[nH]2)cc1 (stereo not drawn) [SB203580]
[4]
  effect on IFNγ: selectively induces IFNγ downmodulation

## CC1(C)S[C@@H]2[C@H](NC(=O)Cc3ccccc3)C(=O)N2[C@H]1C(=O)O [Pen G, Penicillin G]
[5]
  cells expanded upon in vitro stimulation: mainly IL4^+ and IL4^+IFNγ^+ cells are expanded
[1]; [10]
  IL2 (100% value): 40.3 SI
  IL4 (100% value): 5414 pg/mL
[6]; clones from donor one, SI ≥ 2.0 as positive response
  lowest doses capable of triggering cellular proliferation: ≥ 0.3 mg/mL
[6]; clones from donor one, only at the highest dose tested
  dose at which clones could secrete IL4: 3 mg/mL
[6]; clones from donor two
  clones in which lower concentration induced higher level of IFNγ secretion: 14 of the 18
[6]; clones from donor two, number of clones
  clones able to shift from type 0 to type 1 responses: 5
[6]; clones from donor two, SI ≥ 2.0 as positive response
  lowest dose capable of triggering cellular proliferation: 0.03 mg/mL
[6]; clones isolated from donor two
  clones able to shift their phenotype from type 0 to type 1: 35%
[7]
  Pen G concentration of maximal proliferation: 0.3 mg/mL
[3]; [10]
  IFNγ (100% value): 6637 pg/mL
  IL2 (100% value): 80.5 SI of CTLL cells
  IL4 (100% value): 5788 pg/mL
[3]; Pen G 1 mg/ml, behaved as a Th2 clone
  cytokine pattern: secreting IL4 but not IFNγ

## CC1(C)S[C@@H]2[C@H](NC(=O)[C@H](N)c3ccccc3)C(=O)N2[C@H]1C(=O)O [Amp, Ampicillin]
[1]
  interference on Pen G-induced IL2 secretion: no interference
  cytokine response to the derivative alone: None of them responded
[2]
  effect on cytokine secretion: no effect
[3]; [9]
  effect on the Pen G-induced cytokine pattern: did not affect
[3]; [8]
  effect on IFNγ secretion: slight reduction
[3]
  cytokine response to the derivative alone: None of them responded
